ChEMBL document CHEMBL1141817, “A novel extracellular diterpenoid with antibacterial activity from the cyanobacterium Nostoc commune” (1999)
≈ marks a conversion by molar mass, not a printed value.

Tests used:
Assay type in all cases: functional
[1] = tested on: Staphylococcus epidermidis; assay: Antibacterial activity against Staphylococcus epidermidis ATCC 12228
Escherichia coli = assay: Antibacterial activity against Escherichia coli ATCC 25922
Bacillus cereus = assay: Antibacterial activity against Bacillus cereus ATCC 10702

SMILES | MIC [1] [µg/mL] | MIC (Escherichia coli) [µg/mL] | MIC (Bacillus cereus) [µg/mL]
C[C@@H]1CC=C2[C@@H](CC[C@H]3C(C)(C)[C@H](O)CC[C@@]23C)[C@]1(C)Cc1cc(C(=O)O)ccc1O [NOSCOMIN] | 8 (≈ 18.8 µM) | 128 (≈ 300 µM) | 32 (≈ 75 µM)
O=C(N[C@H](CO)[C@H](O)c1ccc([N+](=O)[O-])cc1)C(Cl)Cl [CHLORAMPHENICOL] | 4 (≈ 12.4 µM) | 64 (≈ 198 µM) | 8 (≈ 24.8 µM)
